Patent US20240261294A1, “METHOD FOR TREATING IDH INHIBITOR-RESISTANT SUBJECTS” (Eli Lilly and Company, priority 2021, published 2024)
Changes are numbered by the printed parent chain.

Key:
IDH2 R140L_Q316E trans = molecular target: T1, IDH2 R140L_Q316E trans (Homo sapiens, UniProt P48735, Q316E/R140L); assay: Inhibition of 2-HG production in IDH2 mutant U-87 MG cells; assay type: cell-based; conditions: 16 hours incubation, 50K cells/well, 100 μl media/well, read-out: Relative IC50 (nM) Mean, inhibition of 2-HG production
T1 construct: expressed in transfected cells; host or cells: U-87 MG
T1 sequence (P48735 40-452 R140L): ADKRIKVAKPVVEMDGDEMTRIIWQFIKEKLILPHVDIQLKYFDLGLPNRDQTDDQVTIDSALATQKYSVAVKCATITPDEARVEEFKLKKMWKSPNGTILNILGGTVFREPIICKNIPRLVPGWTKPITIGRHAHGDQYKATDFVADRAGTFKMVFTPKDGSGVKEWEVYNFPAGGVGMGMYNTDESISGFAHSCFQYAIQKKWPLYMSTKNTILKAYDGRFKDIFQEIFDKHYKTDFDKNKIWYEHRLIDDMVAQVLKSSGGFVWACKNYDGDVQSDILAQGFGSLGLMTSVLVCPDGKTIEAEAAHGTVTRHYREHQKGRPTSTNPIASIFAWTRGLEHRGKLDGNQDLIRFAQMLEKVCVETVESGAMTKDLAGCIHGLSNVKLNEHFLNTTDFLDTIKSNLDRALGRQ
T1 sequence (P48735 40-452 Q316E): T1 sequence (P48735 40-452 R140L) with L101R, Q277E
Experimental: Compounds and Formulation. Compound A may be synthesized as described in WO/18/111707. Compound A is prepared as a 20 mM stock in 100% DMSO (dimethyl sulfoxide) (Sigma, D2438) and diluted serially in 100% DMSO to achieve the desired concentrations. DMSO preparations are further diluted with cell culture media prior to addition in the assay.
Cell lines. U-87 MG cells (ATCC, HTB-14) are cultured and assayed in MEM (Gibco, 11095) with 2 mM GlutaMAX (Gibco, 35050), 1 mM Pyruvate (Gibco, 11360), 0.1 mM NEAA ((Non-essential amino acid) Gibco, 11140) and 10% dialyzed FBS (Fetal bovine serum) (Gibco, 26400).
Cell-based inhibition assays. Cell-based assays are performed by measuring 2-HG in U-87 MG cells in which IDH2 mutations are expressed.
DNA constructs encoding IDH2 mutations are introduced into U-87 MG cells using transfection (Promega FuGENE HD, E2311) or lentiviral transduction, and the IDH2-mutant expressing cell lines are selected using blasticidin (5 μg/ml) or puromycin (1 μg/ml). Second site mutations (Q316E, I319M, P167R, and G260A) are evaluated in cis (same monomer as driver mutation within dimer) or in trans (opposite monomer from driver mutation in dimer). For compound treatments, 12,500 or 50,000 cells per well in culture medium (150 μl or 100 μl, respectively) are plated in 96 well cell culture plates (Falcon, 353377) 2 hrs prior to treatment. Cells are treated with serial dilutions of compound A in standard growth media. Plates are incubated in a mammalian cell culture incubator (humidified, 37° C., 5% CO2) for 16 or 72 hrs. Following the incubation period, the media is aspirated and cell extracts are prepared by addition of ice-cold 80% methanol/20% water (100 μL) containing liquid chromatography-mass spectrometry (LC-MS) internal standards (1 μM ^13C4 α-KG and ^13C5 2-HG) per well for ion pairing LC-MS method. 96-well sample plates are then sealed, shaken at 450 rpm for 10 min, and then placed at −20° C. and stored until LC-MS analysis.
LC-MS metabolite analysis of conditioned media and cell lysates. The effect of inhibitors on the concentrations of 2-HG are determined by LC-MS analysis of cell lysates using an ion-pairing method as described below.
Calibration curves are prepared by spiking 2-HG and α-KG into 80% methanol/20% water containing LC-MS internal standards (1 μM ^13C4 α-KG and 1 μM ^13C5 2-HG). The quantitation of 2-HG and α-KG is accomplished using an AB Sciex 6500 mass spectrometer with an Electrospray Ionization (ESI) probe and interfaced with an Ultra Performance Liquid Chromatography (UHPLC) system in the negative multiple-reaction monitoring (MRM) mode. The UHPLC system consists of an Agilent 1290 binary pump, thermostatted column compartment (TCC), and sampler. The injection volume is 1 μL for cell culture extracts. The extracts are chromatographically resolved using a Hypercarb column, 2.1×20 mm, […] Javelin HTS (Thermo Scientific, PN: 35005-022135). Mobile phase A is water/10 mM tributylamine/15 mM acetic acid. Mobile phase B is acetonitrile/20 mM tributylamine/30 mM acetic acid. The solvent flow rate is 1.0 mL/min. The isocratic condition is kept at 26% mobile phase B. The valve, sample loop, and needle are washed with 50% acetonitrile: 50% methanol for 20 seconds. The column temperature is kept at 55° C. Calibration curves are calculated by least-square linear regression with 1/x weighting. 2-HG and α-KG are quantified using standard curve and ratio of the peak area of analytes to internal standard. Data analysis is performed using MultiQuant 3.0 (AB Sciex). The raw data are exported to Microsoft Excel spreadsheets.
Determination of IC50 Curves. IC50 curves for each compound are obtained using four parameter data fitting analysis in GraphPad/Prism software.

mutant IDH1 = conditions: covalent inhibitor of mutant IDH1 (Cys269); without affecting α-KG levels; cited from earlier work

C=CC(=O)N1CCN([C@@H](CC2CC2)c2ccc([C@H](C)Nc3ncc4c(n3)N(CC)C(=O)OC4)cc2)CC1 [Compound A, 7-[[(1S)-1-[4-[(1S)-2-cyclopropyl-1-(4-prop-2-enoylpiperazin-1-yl)ethyl]phenyl]ethyl]amino]-1-ethyl-4H-pyrimido[4,5-d][1,3]oxazin-2-one]
IC50 (IDH2 R140L_Q316E trans): 262 nM | inhibition of 2-HG production (mutant IDH1): selectively inhibits 2-HG production
